The values below come from patent US20110144000A1, “ANTIMICROBIAL POLYPEPTIDE” (priority 2007, published 2011).

Experiment [1] deals with Escherichia coli (strain 37.4). Description: Viable count bactericidal assay. Format: cell-based. The note with it: for antibacterial activity compared with GCP-2/CXCL6 holopeptide: fragment comparison, FIG. 1b. The text has this:
(§1) The GAS strain AP1 (40/58) of M1 serotype was from the World Health Organization Collaborating Centre for Reference and Research on Streptococci, Prague, Czech Republic. Streptococcus pyogenes (strain AP1) and Streptococcus Dysgalactiae, sub species equisimilis (strain G41), Staphylococcus aureus (strain 5120), Pseudomonas aeruginosa (strain 1553 initially isolated from a chronic venous ulcer) and Escherichia coli (strain 37.4) were routinely grown in Todd-Hewitt (TH) liquid medium in 5% CO2 and at 37° C. The bacterial strains were obtained from Division of Infection Medicine, Department of Clinical Sciences, Lund University, BMC B14, Tornavagen 10, SE-221 84 Lund, Sweden.
(§2) Bacteria were cultivated to mid-log phase (OD620 0.4) in Todd-Hewitt broth, washed, and diluted in incubation buffer (10 mM Tris-Hcl pH 7.4 containing 5 mM glucose). Pseudomonas aeruginosa was grown for 18 hours at 37° C. 50 μl of bacteria (1×10^6 colony forming units (cfu)/mL) were incubated together with various concentrations of peptide or buffer alone for 1 h at 37° C. In order to quantify bactericidal activity, serial dilutions of the incubation mixtures were plated on TH agar. The number of resulting cfu:s were related to bacteria incubated with buffer alone and the results expressed as % killing.
(§3) GCP-2/CXCL6 (SEQ ID NO:3) as well as parts of CXCL6, i.r., SEQ ID NO:1 and 2 being part of CXCL6 was examined for antibacterial activity against a panel of bacteria relevant during infections of dermis and mucosal surfaces. The bacteria included Gram-positive (Group A streptococci, group G streptococci, and S. aureus) and G-negative (E. coli and P. aeruginosa) bacteria (FIG. 1 a). […] To delineate what regions of the GCP-2/CXCL6 molecule that are responsible for antibacterial activity, a 50 amino acid fragment of the NH2-terminal region (GPV-50) of GCP-2/CXCL6 and a 19 amino acid fragment (APF-19) of the COOH-terminal region (a region with a putative amphiphatic alpha-helical structure), was compared with the GCP-2/CXCL6 holopeptide. Antibacterial activity was investigated against S. pyogenes and E. coli.

Experiment [2] deals with Streptococcus pyogenes (strain AP1). The experiment can be described thus: Viable count bactericidal assay. The experiment is classed as cell-based. The note with it: for antibacterial activity compared with GCP-2/CXCL6 holopeptide: fragment comparison, FIG. 1b.
Excerpt: as §1, §2, §3

In experiment [3] the test system is bacteria. The note with it: literature (Yang et al., 2003; Cole et al., 2001); cited from earlier work.
In experiment [4] the test system is Neisserria gonorrhoea. The experiment can be described thus: Viable count bactericidal assay against N. gonorrhoeae. Format: cell-based, Neisseria gonorrhoeae. The note with it: mean, ±SEM. On the procedure: as §2
The anti-bacterial activity of the GCP-2/CXCL6 (SEQ ID NO:3) against the gram-negative bacteria Neisserria gonorrhoea was determined using the previously described experimental set-up (See Example 3).

The test system of experiment [5] is Streptococcus Dysgalactiae, sub species equisimilis (strain G41). Description: Viable count bactericidal assay. The note with it: 1 h at 37° C., at below micromolar concentrations. Format: cell-based.
Excerpt: as §1, §2, §3

Experiment [6] has as its system Staphylococcus aureus (strain 5120). The experiment can be described thus: Viable count bactericidal assay. The experiment is classed as cell-based. The following applies: 1 h at 37° C., at below micromolar concentrations.
Excerpt: as §1, §2, §3

Experiment [7] has as its system Pseudomonas aeruginosa (strain 1553). The experiment can be described thus: Viable count bactericidal assay. The experiment is classed as cell-based. The following applies: 1 h at 37° C., at below micromolar concentrations.
Excerpt: as §1, §2, §3

For experiment [8], the system named is Enterococcus faecalis. Description: Viable count bactericidal assay against E. faecalis. The experiment is classed as cell-based. The note with it: mean, ±SEM. On the procedure: as §2
The anti-bacterial activity of the GCP-2/CXCL6 (SEQ ID NO:3) against the gram-positive, facultatively anaerobic bacteria Enterococcus faecalis was determined using the previously described experimental set-up (See Example 3).

Where [9] appears, read: viable count, 1 h at 37° C., at below micromolar concentrations.

Consider “APFLKKVIQKILDSGNKKN (CXCL6 peptide) [APF-19, 19 amino acid fragment of the COOH-terminal region of GCP-2/CXCL6]”, for which the “antibacterial activity compared with GCP-2/CXCL6 holopeptide” value in experiment [1] and in experiment [2] was “less antibacterial than the holopeptide” each time.

With “CXCL5: related ELR-positive CXC chemokine, closest sequence homology to CXCL6 [reference compound]”, in experiment [3], the activity against bacteria entry is recorded as “no activity against bacteria”.

Consider “GCP-2/CXCL6: Recombinant human chemokine GCP-2/CXCL6 (SEQ ID NO:3) from PeproTech”, for which, in experiment [3], the activity against bacteria result is given as “no activity”. Also, the MBC50 in experiment [4] is given as 0.3 ± 0.1 μM (mean, ±SEM); in experiment [8], 0.46 ± 0.03 μM (mean, ±SEM). Also, the MBC90 turned out to be 0.8 ± 0.1 µM in experiment [4] and 0.90 ± 0.00 µM in experiment [8]. For the same substance, the bactericidal effect entry in experiment [5], in experiment [6], in experiment [1] (setting [9]), in experiment [7] and in experiment [2] (setting [9]) was “bactericidal effect” in each case.

Regarding “GPVSAVLTELRCTCLRVTLRVNPKTIGKLQVFPAGPQCSKVEVVASLKNG (CXCL6 peptide) [GPV-50, 50 amino acid fragment of the NH2-terminal region of GCP-2/CXCL6]”, the “antibacterial activity compared with GCP-2/CXCL6 holopeptide” value in experiment [1] and in experiment [2] was “higher antibacterial activity than APF-19” each time.
